In US8551721B2, “Bioluminescent detection of cyanohydroxy benzothiazole compounds” (Promega Corporation, priority 2008, dated 2013):

How the values were obtained:
[1] = test system: UGT activity in human liver microsomes (HLM); experiment: Inhibition of UGT activity in human liver microsomes by diclofenac (titration), probe compound 3138; format: biochemical; conditions: 0.1 mg/mL HLM, 50 μM compound 3138, 15 minutes at 37° C.; read-out: EC50, inhibition of HLM utilization of compound 3138
Experimental: The invention includes a method of determining activity of the uridine 5′-diphospho-glucuronosyltransferase (UDP-glucuronosyltransferase, or UGT) family enzymes in vitro. Briefly, UGT enzymes from overexpressed insect microsomes (Supersomes™, BD Gentest™) or animal tissue microsomes (Xenotech, BD Gentest™) were incubated with a cyanobenzothiazole substrate of the invention and the cofactor UDP-glucuronic acid (UDPGA) at 37° C. in buffer at physiological pH containing MgCl2 and alamethicin (typically, 50 mM TES, pH 7.5, 8 mM MgCl2, 4 mM UDPGA (Sigma) and 25 μg/mL alamethicin (Sigma)). […]
(§1) During this incubation, the cysteine reacts with the cyanobenzathiozole substrate to yield a D-luciferin derivative. […] Therefore, activity of the UGT enzyme can be measured by analyzing the difference (lower or no output) in relative light units (RLU) of a sample in which glucuronidation occurs compared to a sample that was run under the same conditions with no added UDPGA cofactor.
All reactions contained 50 mM TES, pH 7.5, 8 mM MgCl2, 25 μg/mL alamethicin, 0.1 mg/mL HLM, and 50 μM compound 3138, plus or minus 4 mM UDPGA. […] After 20 minutes at room temperature, RLU were read on a luminometer.

[2] = test system: UGT isozymes; conditions: cited from earlier work
[3] = target: T1, UGT 1A1 (Homo sapiens, UniProt P22309); experiment: Inhibition of recombinant UGT 1A1 supersomes by diclofenac, probe compound 3138; format: biochemical; conditions: 0.1 mg/mL Supersomes, 20 μM compound 3138, 90 minutes at 37° C.
T1 construct: purchased BD Gentest; host or cells: insect cells (microsomes)
T1 sequence (P22309 26-533): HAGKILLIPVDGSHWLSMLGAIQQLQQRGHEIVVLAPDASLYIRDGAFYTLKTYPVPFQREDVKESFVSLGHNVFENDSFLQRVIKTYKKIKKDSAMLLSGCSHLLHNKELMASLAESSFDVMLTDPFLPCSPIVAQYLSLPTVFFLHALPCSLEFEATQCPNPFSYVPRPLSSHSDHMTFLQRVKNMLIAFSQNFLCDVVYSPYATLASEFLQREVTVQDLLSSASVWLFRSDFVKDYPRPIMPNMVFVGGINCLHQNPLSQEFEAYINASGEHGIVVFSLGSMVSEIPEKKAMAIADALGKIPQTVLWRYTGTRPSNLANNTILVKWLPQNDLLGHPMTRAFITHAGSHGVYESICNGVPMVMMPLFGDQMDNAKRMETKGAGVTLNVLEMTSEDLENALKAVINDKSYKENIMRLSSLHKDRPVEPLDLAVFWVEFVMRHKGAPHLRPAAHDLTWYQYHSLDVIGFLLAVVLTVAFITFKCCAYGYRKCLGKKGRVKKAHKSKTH
Experimental: The invention includes a method of determining activity of the uridine 5′-diphospho-glucuronosyltransferase (UDP-glucuronosyltransferase, or UGT) family enzymes in vitro. […] Following the UGT enzyme reaction, an equal volume of P450-Glo Luciferin Detection Reagent (Promega) containing 15-30 mM D-cysteine-HCl.H2O (Sigma) was added and the plate was mixed and incubated at room temperature, typically for 20-30 minutes. P450-Glo Luciferin Detection Reagent can be prepared by dissolving a vial of Promega Luciferin Detection Reagent (Promega Part #V859B) with a vial of Promega P450-Glo Buffer (Promega Part #V865B).
as §1

## O=C(O)Cc1ccccc1Nc1c(Cl)cccc1Cl [Diclofenac]
[1]
  EC50: 60 µM
[2]; isozymes currently reported in the literature to be modulated by the compound
  Isozymes Modulated: Inhibits most isozymes
[2]; literature report
  inhibition of UGT isozymes as reported in the literature: reported to inhibit UGT 1A1, 1A3, 1A6, 1A7, 1A8, 1A9, 1A10, 2B7, 2B15, and 2B17
[3]
  IC50: 232 µM
